The values below come from patent publication US9834571B2, “Compounds for inhibiting cell proliferation in EGFR-driven cancers” (ARIAD Pharmaceuticals, Inc., priority 2012, dated 2017).

Like-named read-outs stand apart in the source and are kept apart here.

Assay [1] addresses EGFR L858R/T790M (Homo sapiens, UniProt P00533, L858R/T790M). As to the kind of experiment: Kinase inhibitory activity against EGFR bearing the L858R/T790M double mutation. The assay is classed as biochemical. Particulars: 10 μM ATP, read-out: IC50 for kinase inhibition, EGFR L858R T790M. An outline of the steps: (§1)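 Singlicate 10 pt curves; top conc. 3 μM; ATP 10 μM.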
The target of assay [2] is human EGFR (native sequence) (Homo sapiens, UniProt P00533). As to the kind of experiment: Kinase inhibitory activity against human EGFR (native sequence). The assay is classed as biochemical. The settings on record: 10 μM ATP, read-out: IC50 for kinase inhibition, EGFR. In outline:
as §1

The test system of assay [3] is BaF3 cells expressing wildtype EGFR. Briefly: Antiproliferative activity (MTT) against control BaF3 cells expressing wildtype EGFR. The assay is classed as cell-based. Particulars: Mus musculus. An outline of the steps: (§2)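 In this screen, MTT reduction reported on proliferation of BaF3 cells dependent on mutated EGFR and of matched BaF3 cells expressing wildtype receptor.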

For assay [4], the target named is T1, BaF3 cells expressing the target EGFR mutations (Homo sapiens, UniProt P00533, T790M, cells depend on it, form not given).
T1 construct: IC50, BAF3 EGFR DEL T790M PURO POOL; other: BAF3 EGFR DEL T790M PURO POOL cells, MTT; other: BAF3 EGFR DEL T790M PURO POOL cells; MTT
T1 sequence (P00533 with tags, fused parts or gaps DEL746-750/T790M, form open): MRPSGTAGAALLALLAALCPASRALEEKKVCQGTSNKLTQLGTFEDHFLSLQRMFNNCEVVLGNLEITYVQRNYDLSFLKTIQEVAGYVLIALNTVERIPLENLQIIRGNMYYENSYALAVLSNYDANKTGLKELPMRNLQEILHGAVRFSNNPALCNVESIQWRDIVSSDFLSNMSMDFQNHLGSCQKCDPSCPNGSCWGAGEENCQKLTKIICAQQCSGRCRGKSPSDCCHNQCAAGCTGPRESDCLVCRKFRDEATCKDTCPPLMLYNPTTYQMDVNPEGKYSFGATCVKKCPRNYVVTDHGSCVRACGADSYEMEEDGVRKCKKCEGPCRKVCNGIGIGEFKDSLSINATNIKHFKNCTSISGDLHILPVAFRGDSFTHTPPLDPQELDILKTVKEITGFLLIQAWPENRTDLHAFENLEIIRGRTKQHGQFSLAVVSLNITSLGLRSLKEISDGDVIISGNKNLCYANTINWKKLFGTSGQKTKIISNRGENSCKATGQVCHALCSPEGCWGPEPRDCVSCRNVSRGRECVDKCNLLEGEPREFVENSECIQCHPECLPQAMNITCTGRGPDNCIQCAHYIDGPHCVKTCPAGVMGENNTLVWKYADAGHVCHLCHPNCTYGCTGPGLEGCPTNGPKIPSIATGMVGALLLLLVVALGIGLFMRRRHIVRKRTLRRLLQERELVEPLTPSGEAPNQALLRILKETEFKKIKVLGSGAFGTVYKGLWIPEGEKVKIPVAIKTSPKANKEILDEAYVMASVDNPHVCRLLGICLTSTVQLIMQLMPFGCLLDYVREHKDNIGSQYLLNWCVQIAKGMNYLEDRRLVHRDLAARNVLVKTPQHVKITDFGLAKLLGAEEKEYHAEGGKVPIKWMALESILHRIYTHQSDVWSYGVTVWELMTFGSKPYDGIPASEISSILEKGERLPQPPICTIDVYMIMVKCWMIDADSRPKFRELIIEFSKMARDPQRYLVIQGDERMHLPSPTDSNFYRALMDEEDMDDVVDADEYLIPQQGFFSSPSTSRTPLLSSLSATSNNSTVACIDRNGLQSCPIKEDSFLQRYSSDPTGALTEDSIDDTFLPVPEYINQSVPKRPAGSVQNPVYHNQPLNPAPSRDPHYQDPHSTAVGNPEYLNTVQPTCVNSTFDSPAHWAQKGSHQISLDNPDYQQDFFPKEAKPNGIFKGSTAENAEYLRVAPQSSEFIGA
As to the kind of experiment: Antiproliferative activity (MTT) against BaF3 cells expressing the target EGFR mutations. The assay is classed as cell-based. The settings on record: BAF3 EGFR DEL T790M PURO POOL cells, read-out: IC50, BAF3 EGFR DEL T790M PURO POOL. In outline:
as §2

Assay [5] addresses T2, BaF3 cells expressing the target EGFR mutations (Homo sapiens, UniProt P00533, T790M/L858R, cells depend on it).
T2 construct: IC50, BAF3 EGFR L858R-T790M PURO POOL; other: BAF3 EGFR L858R-T790M PURO POOL cells, MTT; IC50, BAF3 EGFR L858R-T790M PURO POOL; other: BAF3 EGFR L858R-T790M PURO POOL cells; MTT
The description is as above. Type of assay: cell-based. Particulars: BAF3 EGFR L858R-T790M PURO POOL cells, read-out: IC50, BAF3 EGFR L858R-T790M PURO POOL. In outline: as §2

Assay [6] concerns the target EGFR L858R (Homo sapiens, UniProt P00533, L858R). As to the kind of experiment: Kinase inhibitory activity against EGFR bearing the L858R mutation. The settings on record: 10 μM ATP, read-out: IC50 for kinase inhibition, EGFR L858R. The assay is classed as biochemical. An outline of the steps:
as §1

[7] abbreviates: 10 pt curves, 3 μM top concentration.
Where [8] appears, read: EGFR L858R/T790M double mutation.

T2 sequence (P00533 whole entry T790M/L858R): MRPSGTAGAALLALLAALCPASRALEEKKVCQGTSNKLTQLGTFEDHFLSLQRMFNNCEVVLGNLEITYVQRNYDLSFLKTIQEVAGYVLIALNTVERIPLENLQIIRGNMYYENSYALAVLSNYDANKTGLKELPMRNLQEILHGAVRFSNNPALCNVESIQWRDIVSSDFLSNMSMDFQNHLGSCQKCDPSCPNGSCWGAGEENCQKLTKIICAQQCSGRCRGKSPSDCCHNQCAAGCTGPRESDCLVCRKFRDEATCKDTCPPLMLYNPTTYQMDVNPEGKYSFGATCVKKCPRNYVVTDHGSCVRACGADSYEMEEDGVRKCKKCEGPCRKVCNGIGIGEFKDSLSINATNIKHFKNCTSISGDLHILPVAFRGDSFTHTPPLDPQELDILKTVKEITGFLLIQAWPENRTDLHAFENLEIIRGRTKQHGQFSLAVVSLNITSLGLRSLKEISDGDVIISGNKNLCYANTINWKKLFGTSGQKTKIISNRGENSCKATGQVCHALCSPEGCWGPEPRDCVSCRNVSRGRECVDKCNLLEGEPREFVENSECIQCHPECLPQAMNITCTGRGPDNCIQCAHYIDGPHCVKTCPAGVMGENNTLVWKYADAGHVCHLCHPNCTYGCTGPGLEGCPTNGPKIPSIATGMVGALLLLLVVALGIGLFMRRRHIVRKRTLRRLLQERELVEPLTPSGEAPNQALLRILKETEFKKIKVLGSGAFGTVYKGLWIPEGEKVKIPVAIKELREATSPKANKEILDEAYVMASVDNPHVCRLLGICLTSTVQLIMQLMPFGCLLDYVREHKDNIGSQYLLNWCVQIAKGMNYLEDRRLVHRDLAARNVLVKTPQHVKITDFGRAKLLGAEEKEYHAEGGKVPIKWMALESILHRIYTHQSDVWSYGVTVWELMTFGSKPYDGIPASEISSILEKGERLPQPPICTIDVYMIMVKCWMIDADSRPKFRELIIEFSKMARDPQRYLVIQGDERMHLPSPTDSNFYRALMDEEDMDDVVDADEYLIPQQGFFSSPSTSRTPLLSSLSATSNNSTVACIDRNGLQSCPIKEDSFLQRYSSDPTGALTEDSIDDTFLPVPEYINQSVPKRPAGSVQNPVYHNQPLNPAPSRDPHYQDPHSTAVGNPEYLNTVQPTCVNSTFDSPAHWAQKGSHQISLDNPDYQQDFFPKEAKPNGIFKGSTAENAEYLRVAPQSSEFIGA
Sequence of EGFR L858R (P00533 25-1210 L858R): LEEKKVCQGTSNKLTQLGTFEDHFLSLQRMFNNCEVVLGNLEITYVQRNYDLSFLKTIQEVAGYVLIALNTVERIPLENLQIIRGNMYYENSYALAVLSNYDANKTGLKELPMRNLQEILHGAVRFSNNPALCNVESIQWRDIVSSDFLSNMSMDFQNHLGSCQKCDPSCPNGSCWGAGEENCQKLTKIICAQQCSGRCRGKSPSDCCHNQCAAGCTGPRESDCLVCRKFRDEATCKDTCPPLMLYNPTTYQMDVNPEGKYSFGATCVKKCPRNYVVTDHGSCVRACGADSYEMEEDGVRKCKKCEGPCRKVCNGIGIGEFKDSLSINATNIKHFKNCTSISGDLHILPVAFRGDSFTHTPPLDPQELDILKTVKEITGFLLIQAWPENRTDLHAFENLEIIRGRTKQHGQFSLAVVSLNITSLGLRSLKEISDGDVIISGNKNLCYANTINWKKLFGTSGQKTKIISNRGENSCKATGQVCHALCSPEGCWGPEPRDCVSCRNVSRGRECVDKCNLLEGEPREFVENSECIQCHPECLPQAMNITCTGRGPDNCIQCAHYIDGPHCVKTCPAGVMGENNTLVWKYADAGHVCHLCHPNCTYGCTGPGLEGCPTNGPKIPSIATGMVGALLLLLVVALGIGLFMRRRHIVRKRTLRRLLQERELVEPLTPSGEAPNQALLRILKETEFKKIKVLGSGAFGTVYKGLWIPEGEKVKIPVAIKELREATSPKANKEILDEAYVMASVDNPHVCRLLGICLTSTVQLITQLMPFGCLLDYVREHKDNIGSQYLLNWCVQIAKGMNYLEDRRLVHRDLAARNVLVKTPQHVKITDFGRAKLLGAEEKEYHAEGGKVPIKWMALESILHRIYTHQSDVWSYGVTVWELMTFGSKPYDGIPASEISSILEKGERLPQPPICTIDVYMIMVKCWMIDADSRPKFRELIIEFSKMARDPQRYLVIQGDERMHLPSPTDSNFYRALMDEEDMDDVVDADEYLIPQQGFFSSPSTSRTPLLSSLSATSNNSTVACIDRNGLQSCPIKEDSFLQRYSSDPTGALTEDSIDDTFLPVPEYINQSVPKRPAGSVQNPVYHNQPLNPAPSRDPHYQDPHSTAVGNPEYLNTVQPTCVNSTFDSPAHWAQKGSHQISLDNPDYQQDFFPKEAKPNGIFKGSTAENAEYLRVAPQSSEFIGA
Sequence of EGFR L858R/T790M (P00533 25-1210 T790M/L858R): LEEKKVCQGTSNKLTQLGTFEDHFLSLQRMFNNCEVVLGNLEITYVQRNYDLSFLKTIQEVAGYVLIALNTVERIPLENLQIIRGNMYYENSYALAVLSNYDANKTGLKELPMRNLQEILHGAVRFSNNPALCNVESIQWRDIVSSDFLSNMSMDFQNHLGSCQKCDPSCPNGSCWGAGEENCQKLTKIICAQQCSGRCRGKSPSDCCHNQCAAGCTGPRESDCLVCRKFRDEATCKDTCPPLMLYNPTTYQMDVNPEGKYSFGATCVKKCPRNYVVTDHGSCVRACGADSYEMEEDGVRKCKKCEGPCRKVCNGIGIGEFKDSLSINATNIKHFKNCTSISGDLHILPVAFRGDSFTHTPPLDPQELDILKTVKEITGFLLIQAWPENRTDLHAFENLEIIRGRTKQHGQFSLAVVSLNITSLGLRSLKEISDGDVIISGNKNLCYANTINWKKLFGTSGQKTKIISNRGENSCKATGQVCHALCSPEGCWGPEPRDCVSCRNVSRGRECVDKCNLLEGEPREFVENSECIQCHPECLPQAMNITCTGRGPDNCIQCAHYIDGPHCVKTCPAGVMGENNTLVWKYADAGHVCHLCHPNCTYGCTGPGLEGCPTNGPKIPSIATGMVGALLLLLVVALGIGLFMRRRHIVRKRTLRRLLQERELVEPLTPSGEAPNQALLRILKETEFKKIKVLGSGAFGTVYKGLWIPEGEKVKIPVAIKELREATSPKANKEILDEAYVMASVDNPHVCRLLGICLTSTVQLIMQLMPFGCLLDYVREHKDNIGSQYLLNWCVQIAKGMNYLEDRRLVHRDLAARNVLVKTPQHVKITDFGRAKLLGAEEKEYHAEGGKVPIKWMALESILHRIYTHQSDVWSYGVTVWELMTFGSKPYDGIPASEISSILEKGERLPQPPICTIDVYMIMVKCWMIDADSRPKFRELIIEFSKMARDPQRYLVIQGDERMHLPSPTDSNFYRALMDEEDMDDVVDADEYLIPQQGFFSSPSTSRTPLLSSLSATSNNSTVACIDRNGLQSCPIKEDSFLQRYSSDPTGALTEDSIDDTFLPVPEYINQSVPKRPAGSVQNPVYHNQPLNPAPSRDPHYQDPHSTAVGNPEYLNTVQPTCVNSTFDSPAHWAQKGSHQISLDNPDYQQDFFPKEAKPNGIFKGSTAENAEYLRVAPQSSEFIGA

With `C=CC(=O)Nc1ccc(OC(F)(F)F)c(Nc2ncc(Cl)c(Nc3ccccc3P(C)(C)=O)n2)c1` [Example 134, N-(3-((5-chloro-4-((2-(dimethylphosphoryl)phenyl)amino)pyrimidin-2-yl)amino)-4-(trifluoromethoxy)phenyl)acrylamide], the half-maximal inhibitory concentration (IC50) is less than 50 nM in assay [1] (setting [7]), less than 50 nM in assay [2] (setting [7]), no less than 250 nM in assay [3] (BAF3 parental cells) and less than 50 nM in assay [6] (setting [7]). Further, the GI50 in assay [4] and in assay [5] was less than 50 nM in each case.
As for `C=CC(=O)Nc1ccc(OC2COC2)c(Nc2ncc(Cl)c(Nc3ccccc3P(C)(C)=O)n2)c1` [Example 138, N-(3-((5-chloro-4-((2-(dimethylphosphoryl)phenyl)amino)pyrimidin-2-yl)amino)-4-(oxetan-3-yloxy)phenyl)acrylamide], the IC50 in assay [1] (setting [7]), in assay [2] (setting [7]), in assay [3] (BAF3 parental cells) and in assay [6] (setting [7]) was no less than 250 nM each time. Moreover, the GI50 in assay [4] and in assay [5] was no less than 250 nM each time.
In the case of `C=CC(=O)Nc1cc(Nc2ncc(Cl)c(Nc3ccccc3P(C)(C)=O)n2)c(OC)cc1N1CCC(N2CCCCC2)CC1` [Example 69, N-(2-([1,4′-bipiperidin]-1-yl)-5-((5-chloro-4-((2-(dimethylphosphoryl)phenyl)amino)pyrimidin-2-yl)amino)-4-methoxyphenyl)acrylamide], the IC50 was less than 50 nM in assay [1] (setting [8]), less than 50 nM in assay [2] (human EGFR native sequence), no less than 250 nM in assay [3] (BAF3 PARENTAL cells (control)) and less than 50 nM in assay [6] (EGFR L858R). Moreover, the GI50 in assay [4] and in assay [5] was less than 50 nM in each case.
For `Cc1ccc(NC(=O)CCl)cc1Nc1ncc(Cl)c(Nc2ccccc2P(C)(C)=O)n1` [Example 148, 2-chloro-N-(3-((5-chloro-4-((2-(dimethylphosphoryl)phenyl)amino)pyrimidin-2-yl)amino)-4-methylphenyl)acetamide], the concentration for half-maximal inhibition (IC50) in assay [1] (setting [7]) was less than 50 nM; in assay [2] (setting [7]), less than 50 nM; in assay [3] (BAF3 parental cells) it was no less than 250 nM; in assay [6] (setting [7]), less than 50 nM. The GI50 in assay [4] and in assay [5] was less than 50 nM throughout.
As for `C=C(CN1CCCCC1)C(=O)Nc1ccc(OC)c(Nc2ncc(Cl)c(Nc3ccccc3P(C)(C)=O)n2)c1` [Example 43, N-(3-((5-chloro-4-((2-(dimethylphosphoryl)phenyl)amino)pyrimidin-2-yl)amino)-4-methoxyphenyl)-2-(piperidin-1-ylmethyl)acrylamide], the IC50 is less than 50 nM in assay [1] (setting [8]), less than 50 nM in assay [2] (human EGFR native sequence), no less than 250 nM in assay [3] (BAF3 PARENTAL cells (control)) and less than 50 nM in assay [6] (EGFR L858R). The GI50 in assay [4] and in assay [5] was less than 50 nM throughout.
As to `C=CC(=O)Nc1cc(Nc2ncc(Cl)c(Nc3ccccc3P(C)(C)=O)n2)c(OC)cc1N1CC(N2CCCC2)C1` [Example 31, N-(5-((5-chloro-4-((2-(dimethylphosphoryl)phenyl)amino)pyrimidin-2-yl)amino)-4-methoxy-2-(3-(pyrrolidin-1-yl)azetidin-1-yl)phenyl)acrylamide], the IC50 was less than 50 nM in assay [1] (setting [8]), less than 50 nM in assay [2] (human EGFR native sequence), no less than 250 nM in assay [3] (BAF3 PARENTAL cells (control)) and less than 50 nM in assay [6] (EGFR L858R). The GI50 in assay [4] and in assay [5] was less than 50 nM in each case.
For the compound `C=CC(=O)Nc1cc(Nc2ncc(Cl)c(Nc3ccccc3P(C)(C)=O)n2)c(OC)cc1C(=O)N1CCN(C)CC1` [Example 56, N-(5-((5-chloro-4-((2-(dimethylphosphoryl)phenyl)amino)pyrimidin-2-yl)amino)-4-methoxy-2-(4-methylpiperazine-1-carbonyl)phenyl)acrylamide], the half-maximal inhibitory concentration (IC50) in assay [1] (setting [8]) was less than 50 nM; in assay [2] (human EGFR native sequence) it was 101 to 250 nM; in assay [3] (BAF3 PARENTAL cells (control)), no less than 250 nM; in assay [6] (EGFR L858R), less than 50 nM. For the same compound, the GI50 in assay [4] and in assay [5] was no less than 250 nM in each case.
With `C=CC(=O)Nc1cc(Nc2ncc(Cl)c(Nc3ccccc3P(C)(C)=O)n2)c(OC)cc1OCCN1CCOCC1` [Example 4, N-(5-((5-chloro-4-((2-(dimethylphosphoryl)phenyl)amino)pyrimidin-2-yl)amino)-4-methoxy-2-(2-morpholinoethoxy)phenyl)acrylamide], the IC50 in assay [1] (setting [8]) was less than 50 nM; in assay [2] (human EGFR native sequence), less than 50 nM; in assay [3] (BAF3 PARENTAL cells (control)) it was no less than 250 nM; in assay [6] (EGFR L858R) it was less than 50 nM. Further, the GI50 in assay [4] lay within 50 to 100 nM; in assay [5] it was 101 to 250 nM.
For `C=CC(=O)Nc1cc(Nc2ncc(Cl)c(Nc3ccccc3P(C)(C)=O)n2)c(OC)cc1N1CC[C@@H](N(C)C)C1` (stereo in doubt) [Example 26, rac-(R)-N-(5-((5-chloro-4-((2-(dimethylphosphoryl)phenyl)amino)pyrimidin-2-yl)amino)-2-(3-(dimethylamino)pyrrolidin-1-yl)-4-methoxyphenyl)acrylamide], the IC50 in assay [1] (setting [8]) was less than 50 nM; in assay [2] (human EGFR native sequence) it was less than 50 nM; in assay [3] (BAF3 PARENTAL cells (control)), no less than 250 nM; in assay [6] (EGFR L858R), less than 50 nM. Moreover, the GI50 in assay [4] and in assay [5] was less than 50 nM each time.
Turning to `C=C(CN1CCN(CCO)CC1)C(=O)Nc1ccc(OC)c(Nc2ncc(Cl)c(Nc3ccccc3P(C)(C)=O)n2)c1` [Example 52, N-(3-((5-chloro-4-((2-(dimethylphosphoryl)phenyl)amino)pyrimidin-2-yl)amino)-4-methoxyphenyl)-2-((4-(2-hydroxyethyl)piperazin-1-yl)methyl)acrylamide], the IC50 is less than 50 nM in assay [1] (setting [8]), less than 50 nM in assay [2] (human EGFR native sequence), no less than 250 nM in assay [3] (BAF3 PARENTAL cells (control)) and less than 50 nM in assay [6] (EGFR L858R). For the same compound, the GI50 in assay [4] and in assay [5] was less than 50 nM in each case.
On to `C=C(CN1CCN(C(C)C)CC1)C(=O)Nc1ccc(OC)c(Nc2ncc(Cl)c(Nc3ccccc3P(C)(C)=O)n2)c1` [Example 50, N-(3-((5-chloro-4-((2-(dimethylphosphoryl)phenyl)amino)pyrimidin-2-yl)amino)-4-methoxyphenyl)-2-((4-isopropylpiperazin-1-yl)methyl)acrylamide], for which the IC50 in assay [1] (setting [8]) was less than 50 nM; in assay [2] (human EGFR native sequence), 50 to 100 nM; in assay [3] (BAF3 PARENTAL cells (control)), no less than 250 nM; in assay [6] (EGFR L858R) it was less than 50 nM. Further, the GI50 in assay [4] and in assay [5] was less than 50 nM throughout.
Turning to `C=CC(=O)Nc1cc(Nc2ncc(Cl)c(Nc3ccccc3P(C)(C)=O)n2)c(OC)cc1N1CCC(N2CCN(C)CC2)C1` (stereo not drawn) [Example 37, N-(5-((5-chloro-4-((2-(dimethylphosphoryl)phenyl)amino)pyrimidin-2-yl)amino)-4-methoxy-2-(3-(4-methylpiperazin-1-yl)pyrrolidin-1-yl)phenyl)acrylamide], the IC50 in assay [1] (setting [8]) was less than 50 nM; in assay [2] (human EGFR native sequence) it was less than 50 nM; in assay [3] (BAF3 PARENTAL cells (control)), no less than 250 nM; in assay [6] (EGFR L858R), less than 50 nM. For the same compound, the GI50 in assay [4] was in the range of 50 to 100 nM; in assay [5] it was 101 to 250 nM.
Take `COc1ccc(NC(=O)/C=C\C(=O)N2CCN(C)CC2)cc1Nc1ncc(Cl)c(Nc2ccccc2P(C)(C)=O)n1` [Example 63, (Z)-N-(3-((5-chloro-4-((2-(dimethylphosphoryl)phenyl)amino)pyrimidin-2-yl)amino)-4-methoxyphenyl)-4-(4-methylpiperazin-1-yl)-4-oxobut-2-enamide]: the IC50 in assay [1] (setting [8]) is no less than 250 nM; in assay [2] (human EGFR native sequence) it was no less than 250 nM; in assay [3] (BAF3 PARENTAL cells (control)), no less than 250 nM; in assay [6] (EGFR L858R), 101 to 250 nM. The GI50 in assay [4] and in assay [5] was no less than 250 nM throughout.
As to `C=CC(=O)Nc1cc(Nc2ncc(Cl)c(Nc3ccccc3P(C)(C)=O)n2)c(OC)cc1N1CCC(N2CCN(CCO)CC2)C1` (stereo not drawn) [Example 40, N-(5-((5-chloro-4-((2-(dimethylphosphoryl)phenyl)amino)pyrimidin-2-yl)amino)-2-(3-(4-(2-hydroxyethyl)piperazin-1-yl)pyrrolidin-1-yl)-4-methoxyphenyl)acrylamide], the IC50 in assay [1] (setting [8]) is less than 50 nM; in assay [2] (human EGFR native sequence) it was less than 50 nM; in assay [3] (BAF3 PARENTAL cells (control)), no less than 250 nM; in assay [6] (EGFR L858R) it was less than 50 nM. Further, the GI50 in assay [4] and in assay [5] was no less than 250 nM in each case.
